Test results from ChEMBL document CHEMBL4819104, “Discovery of 2-amino-3-amido-5-aryl-pyridines as highly potent, orally bioavailable, and efficacious PERK kinase inhibitors” (Bioorg Med Chem Lett, 2021).
≈ marks a conversion by molar mass, not a printed value.

Legend:
[1] = molecular target: T1, Eukaryotic translation initiation factor 2-alpha kinase 3 (Homo sapiens, UniProt Q9NZJ5); experiment: Inhibition of human His-tagged PERK expressed in Escherichia coli assessed as eIF2alpha phosphorylation by TR-FRET assay
T1 sequence (Q9NZJ5 whole entry): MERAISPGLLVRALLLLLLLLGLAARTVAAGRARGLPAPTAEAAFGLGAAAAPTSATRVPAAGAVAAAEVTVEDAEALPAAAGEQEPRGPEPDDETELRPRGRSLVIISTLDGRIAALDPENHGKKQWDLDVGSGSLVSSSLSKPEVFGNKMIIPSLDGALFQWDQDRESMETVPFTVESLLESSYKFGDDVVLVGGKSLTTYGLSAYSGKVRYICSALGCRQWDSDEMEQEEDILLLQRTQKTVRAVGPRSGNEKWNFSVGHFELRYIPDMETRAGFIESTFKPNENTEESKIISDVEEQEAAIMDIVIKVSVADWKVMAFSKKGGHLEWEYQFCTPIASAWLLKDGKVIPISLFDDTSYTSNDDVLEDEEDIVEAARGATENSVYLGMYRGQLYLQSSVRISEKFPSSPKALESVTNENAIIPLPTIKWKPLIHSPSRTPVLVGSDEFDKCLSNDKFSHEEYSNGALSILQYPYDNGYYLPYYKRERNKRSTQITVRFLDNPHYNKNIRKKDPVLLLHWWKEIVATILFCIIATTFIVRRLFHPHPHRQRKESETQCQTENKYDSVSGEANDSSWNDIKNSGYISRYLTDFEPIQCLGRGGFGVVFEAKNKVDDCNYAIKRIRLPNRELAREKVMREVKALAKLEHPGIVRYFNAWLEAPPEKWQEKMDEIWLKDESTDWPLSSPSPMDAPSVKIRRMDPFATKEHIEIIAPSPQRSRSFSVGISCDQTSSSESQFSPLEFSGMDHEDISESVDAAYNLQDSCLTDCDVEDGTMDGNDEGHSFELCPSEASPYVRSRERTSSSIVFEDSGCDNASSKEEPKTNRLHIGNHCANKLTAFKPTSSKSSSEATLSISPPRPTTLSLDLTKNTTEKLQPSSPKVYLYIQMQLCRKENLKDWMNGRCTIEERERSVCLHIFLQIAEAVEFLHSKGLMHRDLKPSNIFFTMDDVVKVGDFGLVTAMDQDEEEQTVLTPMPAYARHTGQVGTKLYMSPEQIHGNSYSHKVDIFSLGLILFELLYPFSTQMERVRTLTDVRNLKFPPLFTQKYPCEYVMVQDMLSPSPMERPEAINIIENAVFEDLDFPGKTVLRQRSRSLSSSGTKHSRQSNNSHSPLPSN

[2] = Half life in human hepatocytes; assay type: ADME, cell-based, Hepatocyte
[3] = Half life in dog hepatocytes; assay type: ADME, cell-based, Canis lupus familiaris, Hepatocyte
[4] = Efflux ratio of apparent permeability in human Caco-2 cells; assay type: ADME, cell-based
[5] = Half life in mouse hepatocytes; assay type: ADME, cell-based, Hepatocyte
[6] = Plasma protein binding in rat; assay type: ADME, cell-free; details: read-out: PPB (converted)
[7] = Plasma protein binding in human; assay type: ADME, cell-free; details: read-out: PPB (converted)
[8] = Plasma protein binding in dog; assay type: ADME, cell-free, Canis lupus familiaris; details: read-out: PPB (converted)
[9] = Half life in rat hepatocytes; assay type: ADME, cell-based, Hepatocyte
[10] = Plasma protein binding in mouse; assay type: ADME, cell-free; details: read-out: PPB (converted)
[11] = Aqueous solubility of the compound; assay type: physicochemical; details: buffer
[12] = Apparent permeability of the compound across apical to basolateral side in human Caco-2 cells; assay type: ADME, cell-based; details: read-out: permeability

## Cc1cc(NC(=O)[C@H](O)c2ccccc2)ccc1-c1cnc(N)c(C(=O)NC(C)C)c1
[1]
  IC50: 9 nM

## Cc1cc(NC(=O)[C@H](O)c2cc(F)cc(F)c2)ccc1-c1cc(C(=O)NC(C)C)c(N)nn1
[1]
  IC50: > 1000 nM

## Cc1cc(NC(=O)[C@H](O)c2cc(F)cc(F)c2)ccc1-c1cnc(N)c(C(=O)OC(C)C)c1
[1]
  IC50: 19 nM

## Cc1cc(NC(=O)[C@H](O)c2cc(F)cc(F)c2)ccc1-c1cnc(N)c(C(=O)N(C)C)c1
[1]
  IC50: 599 nM

## Cc1cc(NC(=O)[C@H](O)c2cc(F)cc(F)c2)ccc1-c1cnc(N)c(C(=O)NC(C)C)n1
[1]
  IC50: 5 nM

## Cc1cc(NC(=O)Cc2ccccc2)ccc1-c1cnc(N)c(C(=O)NC(C)C)c1
[1]
  IC50: 73 nM

## Cc1cc(NC(=O)[C@H](N)c2ccccc2)ccc1-c1cnc(N)c(C(=O)NC(C)C)c1
[1]
  IC50: 1460 nM

## Cc1cc(NC(=O)[C@@H](O)c2cc(F)cc(F)c2)ccc1-c1cnc(N)c(C(=O)NC(C)C)c1
[1]
  IC50: 26 nM

## CCc1cccc([C@@H](O)C(=O)Nc2ccc(-c3cnc(N)c(C(=O)NC(C)C)c3)c(C)c2)c1
[1]
  IC50: 6 nM

## Cc1cc(NC(=O)[C@H](O)c2cccc(Cl)c2)ccc1-c1cnc(N)c(C(=O)NC(C)C)c1
[2]
  half-life: 4.32 h
[3]
  half-life: 3.73 h
[1]
  IC50: 3 nM
[4]
  efflux ratio: 2.8
[5]
  half-life: 0.783 h
[6]
  fraction unbound: 0.013
[7]
  fraction unbound: 0.004
[8]
  fraction unbound: 0.006
[9]
  half-life: 0.2 h
[10]
  fraction unbound: 0.006
[11]
  solubility: 13 µM (≈ 5.89 µg/mL)
[12]
  Papp A→B: 22 ×10⁻⁶ cm/s

## Cc1cc(NC(=O)[C@@](C)(O)c2ccccc2)ccc1-c1cnc(N)c(C(=O)NC(C)C)c1
[1]
  IC50: 159 nM

## CNC(=O)c1nc(-c2ccc(NC(=O)[C@H](O)c3cc(F)cc(F)c3)cc2C)cnc1N
[1]
  IC50: 8 nM

## CC(C)NC(=O)c1cc(-c2ccc(NC(=O)[C@H](O)c3cc(F)cc(F)c3)cc2)cnc1N
[1]
  IC50: 23 nM

## Cc1cc(NC(=O)[C@H](O)c2cc(F)cc(F)c2)ccc1-c1cncc(C(=O)NC(C)C)c1
[1]
  IC50: 27 nM

## Cc1cc(NC(=O)Nc2ccccc2)ccc1-c1cnc(N)c(C(=O)NC(C)C)c1
[1]
  IC50: 1350 nM

## Cc1cc(NC(=O)[C@](C)(O)c2ccccc2)ccc1-c1cnc(N)c(C(=O)NC(C)C)c1
[1]
  IC50: 130 nM

## CCNC(=O)c1cc(-c2ccc(NC(=O)[C@H](O)c3cc(F)cc(F)c3)cc2C)cnc1N
[2]
  half-life: 1.97 h
[3]
  half-life: 14.6 h
[1]
  IC50: 4 nM
[4]
  efflux ratio: 3.3
[5]
  half-life: 1.15 h
[6]
  fraction unbound: 0.033
[7]
  fraction unbound: 0.019
[8]
  fraction unbound: 0.029
[9]
  half-life: 0.567 h
[10]
  fraction unbound: 0.028
[11]
  solubility: 48 µM (≈ 21.1 µg/mL)
[12]
  Papp A→B: 14 ×10⁻⁶ cm/s

## Cc1cc(NC(=O)[C@H](O)c2cc(F)cc(F)c2)ccc1-c1ccc(N)nc1
[1]
  IC50: 75 nM

## Cc1cc(NC(=O)Oc2ccccc2)ccc1-c1cnc(N)c(C(=O)NC(C)C)c1
[1]
  IC50: > 1000 nM

## CC(C)NC(=O)c1cc(-c2ccc(NC(=O)[C@H](O)c3cc(F)cc(F)c3)cc2F)cnc1N
[1]
  IC50: 17 nM

## CNc1ncc(-c2ccc(NC(=O)[C@H](O)c3cc(F)cc(F)c3)cc2C)cc1C(=O)NC(C)C
[1]
  IC50: 129 nM

## Cc1cccc([C@@H](O)C(=O)Nc2ccc(-c3cnc(N)c(C(=O)NC(C)C)c3)c(C)c2)c1
[1]
  IC50: 3 nM

## Cc1cc(NC(=O)C(O)c2cc(F)cc(F)c2)ccc1-c1cnc(N)c(C(=O)O)c1 (centres undefined)
[1]
  IC50: 241 nM

## Cc1cc(NC(=O)[C@H](O)c2cc(F)cc(F)c2)ccc1-c1cnc(N)c(C(=O)NC(C)(C)C)c1
[1]
  IC50: 33 nM

## Cc1cc(NC(=O)[C@H](O)c2cc(F)cc(F)c2)ccc1-c1cnc(N)c(C(=O)NC2CC2)c1
[2]
  half-life: 7.92 h
[3]
  half-life: > 16.7 h
[1]
  IC50: 3 nM
[4]
  efflux ratio: 4.6
[5]
  half-life: 0.8 h
[6]
  fraction unbound: 0.028
[7]
  fraction unbound: 0.024
[8]
  fraction unbound: 0.029
[9]
  half-life: 2.18 h
[10]
  fraction unbound: 0.028
[11]
  solubility: 37 µM (≈ 16.7 µg/mL)
[12]
  Papp A→B: 14 ×10⁻⁶ cm/s

## COc1cc(NC(=O)[C@H](O)c2cc(F)cc(F)c2)ccc1-c1cnc(N)c(C(=O)NC(C)C)c1
[1]
  IC50: 85 nM

## CNC(=O)c1cc(-c2ccc(NC(=O)[C@H](O)c3cc(F)cc(F)c3)cc2C)cnc1N
[1]
  IC50: 14 nM

## CO[C@@H](C(=O)Nc1ccc(-c2cnc(N)c(C(=O)NC(C)C)c2)c(C)c1)c1ccccc1
[1]
  IC50: > 1000 nM

## CC(C)NC(=O)c1cc(-c2ccc(NC(=O)[C@H](O)c3cc(F)cc(F)c3)cc2Cl)cnc1N
[2]
  half-life: 9.48 h
[3]
  half-life: 7.18 h
[1]
  IC50: 9 nM
[4]
  efflux ratio: 2.5
[5]
  half-life: 0.4 h
[6]
  fraction unbound: 0.007
[7]
  fraction unbound: 0.003
[8]
  fraction unbound: 0.005
[9]
  half-life: 0.2 h
[10]
  fraction unbound: 0.005
[11]
  solubility: 13 µM (≈ 6.17 µg/mL)
[12]
  Papp A→B: 24 ×10⁻⁶ cm/s

## Cc1cc(NC(=O)[C@H](O)c2cc(F)cc(F)c2)ccc1-c1cnc(C)c(C(=O)NC(C)C)c1
[1]
  IC50: 68 nM
